Assay results as given in article PMC3632402 (Analytical biochemistry, 2012).

Legend:
hsEH = biological target: T1, hsEH (Homo sapiens, UniProt P34913); experiment: Fluorescence binding assay
T1 sequence (P34913 1-555): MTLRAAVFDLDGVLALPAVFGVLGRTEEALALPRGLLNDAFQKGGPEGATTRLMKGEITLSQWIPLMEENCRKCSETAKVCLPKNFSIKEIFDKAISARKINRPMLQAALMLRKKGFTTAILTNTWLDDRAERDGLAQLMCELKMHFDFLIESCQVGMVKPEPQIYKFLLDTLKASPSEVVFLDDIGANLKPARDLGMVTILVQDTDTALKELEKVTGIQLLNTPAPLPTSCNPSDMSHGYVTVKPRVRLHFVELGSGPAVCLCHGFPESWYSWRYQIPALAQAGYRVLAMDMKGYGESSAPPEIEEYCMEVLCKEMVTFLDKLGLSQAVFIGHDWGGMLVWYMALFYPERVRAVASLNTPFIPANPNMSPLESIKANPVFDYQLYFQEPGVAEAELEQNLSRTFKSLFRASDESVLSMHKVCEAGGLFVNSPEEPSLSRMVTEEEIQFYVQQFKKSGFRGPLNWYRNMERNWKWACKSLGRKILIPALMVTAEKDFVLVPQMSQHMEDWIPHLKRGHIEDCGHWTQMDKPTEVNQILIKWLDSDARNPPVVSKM

murine sEH = biological target: T2, murine sEH (Mus musculus, UniProt P34914); experiment: Fluorescence binding assay of reporter ACPU on murine sEH
T2 sequence (P34914 1-554): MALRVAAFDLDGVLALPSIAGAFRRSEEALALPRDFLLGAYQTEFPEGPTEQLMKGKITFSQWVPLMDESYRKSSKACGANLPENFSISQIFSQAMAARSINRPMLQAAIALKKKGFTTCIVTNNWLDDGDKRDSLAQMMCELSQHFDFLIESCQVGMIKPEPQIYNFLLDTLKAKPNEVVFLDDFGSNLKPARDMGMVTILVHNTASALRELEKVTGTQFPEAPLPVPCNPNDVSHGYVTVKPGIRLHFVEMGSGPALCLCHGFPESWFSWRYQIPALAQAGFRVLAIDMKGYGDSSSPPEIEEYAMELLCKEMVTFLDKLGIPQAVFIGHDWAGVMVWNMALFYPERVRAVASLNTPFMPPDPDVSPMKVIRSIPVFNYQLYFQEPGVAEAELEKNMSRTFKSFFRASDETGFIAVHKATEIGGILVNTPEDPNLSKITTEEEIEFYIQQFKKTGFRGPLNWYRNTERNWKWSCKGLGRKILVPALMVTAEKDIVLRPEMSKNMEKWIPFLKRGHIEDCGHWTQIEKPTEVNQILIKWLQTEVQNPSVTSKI

rat sEH = biological target: T3, rat sEH (Rattus norvegicus, UniProt P80299); experiment: Fluorescence binding assay of reporter ACPU on rat sEH
T3 sequence (P80299 1-554): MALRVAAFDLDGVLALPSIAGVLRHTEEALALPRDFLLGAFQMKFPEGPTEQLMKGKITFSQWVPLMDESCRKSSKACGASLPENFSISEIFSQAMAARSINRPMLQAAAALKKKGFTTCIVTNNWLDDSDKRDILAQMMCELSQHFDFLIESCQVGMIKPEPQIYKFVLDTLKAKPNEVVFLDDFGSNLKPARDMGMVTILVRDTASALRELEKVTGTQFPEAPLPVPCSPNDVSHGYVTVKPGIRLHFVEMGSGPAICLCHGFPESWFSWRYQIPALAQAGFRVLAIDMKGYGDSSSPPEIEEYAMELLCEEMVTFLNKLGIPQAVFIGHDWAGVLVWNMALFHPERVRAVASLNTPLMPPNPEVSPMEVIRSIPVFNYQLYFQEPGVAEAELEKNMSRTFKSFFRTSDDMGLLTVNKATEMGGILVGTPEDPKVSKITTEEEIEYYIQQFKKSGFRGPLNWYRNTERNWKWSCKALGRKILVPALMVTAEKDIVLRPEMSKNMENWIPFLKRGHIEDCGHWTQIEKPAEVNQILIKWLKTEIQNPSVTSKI

Kd (hsEH): 1.04 ± 0.04 nM
time needed to reach the equilibrium between ACPU and sEH (hsEH; FRET signal at 450 nm): 40 min
Kd (murine sEH): 0.1 nM
Kd (rat sEH): 0.17 nM
SMILES: O=C(NC1CCN(C(=O)Cc2cc(=O)oc3cc(O)ccc23)CC1)NC12CC3CC(CC(C3)C1)C2 [ACPU, 1-(adamantan-1-yl)-3-(1-(2-(7-hydroxy-2-oxo-2H-chromen-4-yl)acetyl)piperidin-4-yl)urea]
